Where two headings read alike, the source gives them in different places. Marks after values point to notes of the source that are not given here. Residues, ends and D or L forms follow the SMILES beside them. *: point of attachment. Cbz = O=C(OCc1ccccc1)*; CH2F = FC* Where only a bound is given, the exact number is not on record here.

This note sets out measurements from article PMC5833756, “A novel ruthenium complex with xanthoxylin induces S-phase arrest and causes ERK1/2-mediated apoptosis in HepG2 cells through a p53-independent pathway” (Cell Death & Disease, 2018).

The test system of series [1] is WT SV40 MEF. Format: cell-based, mouse. To be noted: Mus musculus, 72 h.
The subject of series [2] is BAD KO SV40 MEF. Format: cell-based, mouse. Particulars: Mus musculus, 72 h.
The subject of series [3] is HepG2 cell xenografts. Kind of series: Human hepatocellular carcinoma xenograft model. To be noted: 0.3 mg/kg doxorubicin, 10 mg/kg 5-fluorouracil, i.p. once a day for 21 days. The class given is in vivo, C.B-17 SCID mice.
Experimental: Animals were housed in cages with free access to food and water. All animals were kept under a 12:12 h light-dark cycle (lights on at 6:00 a.m.). The local Animal Ethics Committee approved the experimental protocol (number 06/2015).
(§1) HepG2 cells (1 × 10^7 cells per 500 µL) were implanted subcutaneously into the left front armpit of the mice. […] The treatments were initiated one day after the tumor cell injection. The animals were treated intraperitoneally (200 µL per animal) once daily for 21 consecutive days. On the 22nd day, the animals were anesthetized, and peripheral blood samples were collected from the brachial artery. Animals were euthanized by anesthetic overdose, and tumors were excised and weighed.
For series [4] the following is noted: DOX 0.3 mg/kg, 5-FU 10 mg/kg.
Experimental: as §1
To assess the toxicological effects, mice were weighed at the beginning and at the end of the experiment. […] Hematological analysis was performed using light microscopy. Livers, kidneys, lungs and hearts were removed, weighed and examined for any signs of gross lesions, color changes and/or hemorrhages. After gross macroscopic examination, the tumors, livers, kidneys, lungs and hearts were fixed in 4% formalin buffer and embedded in paraffin. Tissue sections were stained with hematoxylin and eosin chromogens, and a pathologist performed the analysis under a light microscope.
Series [5] relates to HepG2 cells. In words: DNA synthesis quantification (methyl-[3H]-thymidine incorporation). Format: cell-based, human. To be noted: HepG2, 12 μM. Here is the method: Cellular DNA synthesis was quantified by the incorporation of methyl-[^3H]-thymidine. Methyl-[^3H]-thymidine is a radiolabeled DNA precursor that is incorporated into newly synthesized DNA. Briefly, the complex was added along with 1 µCi of methyl-[^3H]-thymidine (PerkinElmer; Shelton, CT, USA) and incubated for 3 h. After this incubation period, cultures were harvested using a cell harvester (Brandel, Inc., Gaithersburg, MD, USA), and the amount of incorporated^3H-thymidine was determined using a liquid scintillation cocktail Hidex Maxilight (PerkinElmer Life Sciences; Groningen, GE, Netherlands) and a plate CHAMELEON V multilabel Counter (Mustionkatu 2, Turku, Finland). Mitoxantrone (Sigma-Aldrich) was used as the positive control.
A general note: Uptake of a labelled nucleoside into DNA is a usual measure of proliferation.

Series [6] concerns HepG2 cells. Kind of series: Trypan blue exclusion assay. The class given is cell-based, human.
Series [7] has as its system HCT116. The class given is cell-based, human. To be noted: HCT116 (human colon carcinoma), 72 h.
The subject of series [8] is HepG2. The class given is cell-based, human. To be noted: HepG2 (human hepatocellular carcinoma), monolayer, 72 h.
The subject of series [9] is HSC-3. The class given is cell-based, human. To be noted: HSC-3 (human oral squamous cell carcinoma), 72 h.
Series [10] deals with SCC-4. Format: cell-based, human. Particulars: SCC-4 (human oral squamous cell carcinoma), 72 h.
Series [11] relates to HL-60. The class given is cell-based, human. Particulars: HL-60 (human promyelocytic leukemia), 72 h.
Series [12] concerns K-562. The class given is cell-based, human. To be noted: K-562 (human chronic myelogenous leukemia), 72 h.
The test system of series [13] is B16-F10. The class given is cell-based, mouse. To be noted: B16-F10 (murine melanoma), 72 h.
The subject of series [14] is MRC-5. The class given is cell-based. To be noted: MRC-5 (human lung fibroblast, non-cancer), 72 h.
The test system of series [15] is PBMC. Format: cell-based. Particulars: PBMC (human peripheral blood mononuclear cells, non-cancer), 72 h.
The test system of series [16] is multicellular spheroids formed from HepG2 cells. In words: 3D multicellular spheroid culture, alamar blue. Format: cell-based, human. To be noted: HepG2 3D spheroids, 72 h. Here is the method:
HepG2 cells were cultivated in 3D multicellular spheroids. Briefly, 100 μL of cell solution (0.5 × 10^6 cells/mL) was added to a 96-well plate with a cell-repellent surface (Greiner Bio-One, Kremsmünster, Austria) and cultured in complete medium plus 3% Matrigel (BD Biosciences, San Jose, CA, USA). Spheroids with stable structures formed after three days. Then, the spheroids were exposed to a range of drug concentrations for 72 h. The negative control received the vehicle that was used for diluting the complex tested. In the end of the experiment, morphological changes were examined by light microscopy (Olympus BX41, Tokyo, Japan) using Image-Pro software (Media Cybernetics, Inc. Silver Spring, USA), and cell viability was quantified by alamar blue assay as described above.

Series [17] relates to HepG2 cells. The class given is cell-based, human. Particulars: DOX 2 µM, OXA 10 µM, RCX 12 µM. Here is the method:
Briefly, the cells were harvested in a permeabilization solution containing 0.1% Triton X-100, 2 µg/mL PI, 0.1% sodium citrate and 100 µg/mL RNAse (all from Sigma-Aldrich) and incubated in the dark for 15 min at room temperature. Finally, cell fluorescence was measured by flow cytometry with a BD LSRFortessa cytometer using BD FACSDiva Software (BD Biosciences) and FlowJo Software 10 (FlowJo Lcc; Ashland, OR, USA). Ten thousand events were evaluated per experiment, and cellular debris was omitted from the analysis.

For series [18], the system named is HepG2 cells. Kind of series: Annexin V/PI staining assay (flow cytometry). On the technique in general: A flow cytometer gives signals particle by particle.
Experimental: For apoptosis detection, we used the FITC Annexin V Apoptosis Detection Kit I (BD Biosciences), and the analysis was performed according to the manufacturer’s instructions. Briefly, cells were washed twice with saline and then resuspended in 100 μL of binding buffer with 5 μL of PI and 5 μL of FITC Annexin V. The cells were gently mixed by vortexing and incubated for 15 min at room temperature in the dark. Afterwards, 400 μL of binding buffer was added to each tube, and the cell fluorescence was determined by flow cytometry, as described above. The percent of viable, early apoptotic, late apoptotic and necrotic cells were determined. […] The cells were then trypsinized, and the FITC Annexin V Apoptosis Detection assay was conducted as described above.
For series [19], the system named is panel of 15 cancer cell lines and 3 non-cancer cells. In words: Alamar blue cytotoxicity assay, whole panel. Particulars: any cells of the panel, 72 h. The class given is cell-based. Here is the method: A panel of 15 cancer cell lines, 3 non-cancer cells and 1 mutant and its parental cell line were selected for this study, as detailed in Table S5. The cells were cultured in RPMI 1640 medium (Gibco-BRL, Gaithersburg, MD, USA) with 10% fetal bovine serum (Life, Carlsbad, CA, USA), 2 mM L-glutamine (Vetec Química Fina, Duque de Caxias, RJ, Brazil) and 50 μg/mL gentamycin (Life, Carlsbad, CA, USA). Adherent cells were collected by treatment with 0.25% trypsin EDTA solution (Gibco-BRL). All cell lines were cultured in flasks at 37 °C in 5% CO2 and subcultured every 3–4 days to maintain exponential growth. All cell lines were tested for mycoplasma using a mycoplasma stain kit (Sigma-Aldrich) to validate the use of cells free from contamination. […]
Cell viability was quantified colorimetrically using the alamar blue assay according to Ahmed et al.[34]. […] Absorbance was measured at 570 nm and 600 nm using the SpectraMax 190 Microplate Reader (Molecular Devices, Sunnyvale, CA, USA), and the drug effect was quantified as a percent of the absorbance of the control-treated cells.
(In general: Resazurin is reduced to fluorescent resorufin, in cell work by metabolically active cells.)

[20] abbreviates: peripheral blood, i.p. 21 days, RCX 2.5 mg/kg.
[21] abbreviates: HepG2, 2 h pretreatment (50 µM Z-VAD(Ome)-FMK, 20 µM Z-IETD-FMK, 20 µM Z-LEHD-FMK, 5 µM U-0126, 5 µM SP 600125, 5 µM PD 169316, 10 µM cyclic pifithrin-α), then 12 µM RCX 48 h.
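For Final body weight in this document: mice bearing subcutaneous HepG2 xenografts, given intraperitoneal doses once daily for 21 days, weighed at start and end, blood leukocytes counted by light microscopy on day 22.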
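For Heart relative weight in this document: mice bearing subcutaneous HepG2 xenografts, given intraperitoneal doses once daily for 21 days, weighed at start and end, blood leukocytes counted by light microscopy on day 22.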
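For Initial body weight in this document: mice bearing subcutaneous HepG2 xenografts, given intraperitoneal doses once daily for 21 days, weighed at start and end, blood leukocytes counted by light microscopy on day 22.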
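For Kidney relative weight in this document: mice bearing subcutaneous HepG2 xenografts, given intraperitoneal doses once daily for 21 days, weighed at start and end, blood leukocytes counted by light microscopy on day 22.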

Turning to `O=c1[nH]cc(F)c(=O)[nH]1` [5-FU, 5-fluorouracil], in series [1], the IC50 was 1.7 µM. The compound further had an IC50 in series [2] of 7.3 µM. In addition, the “reduction of tumor weight” value in [3] worked out at 40.3%. The same compound yielded an Initial body weight in series [4] (before treatment, RCX 2.5 mg/kg groups) of 25.2 ± 0.4 g. In [4] (i.p. 21 days, RCX 2.5 mg/kg), this compound came in with a Final body weight of 24.1 ± 1.7 g, a Heart relative weight of 0.5 ± 0.2 g/100 g body weight, a Kidney relative weight of 1.2 ± 0.4 g/100 g body weight and a Liver relative weight of 3.4 ± 0.7 g/100 g body weight. For the same compound, in series [4] (i.p. 21 days, RCX 2.5 mg/kg), the Lung relative weight was 0.6 ± 0.2 g/100 g body weight and the Survival is listed as 9/15. In series [4] (setting [20]), the “Differential leukocytes: Eosinophils” value came out at 1.0%, the “Differential leukocytes: Lymphocytes” value was 32.8%, the “Differential leukocytes: Monocytes” value came to 1.3% and the “Differential leukocytes: Neutrophils” value is listed as 65.0%. For the same compound, in [4] (setting [20]), the Erythrocytes is listed as 8.4 ± 0.5 10^6cells/μL and the Total leukocytes is given as 1.8 ± 0.3* 10^3cells/μL.
With `O=C1c2c(O)ccc(O)c2C(=O)c2c(NCCNCCO)ccc(NCCNCCO)c21` [Mitoxantrone], the “reduction of DNA synthesis” value in series [5] is on record as 55.2%.
Turning to `CC(=O)N[C@@H](CS)C(=O)O` [N-acetyl-L-cysteine], the “protection against RCX-induced reduction in viable cells” value in series [6] (HepG2, 1 h pretreatment with 5 mM NAC, then 12 µM RCX for 24 h) was “did not prevent the reduction in the number of viable cells”.
As for `O=C1[O][Pt]2([NH][C@@H]3CCCC[C@H]3[NH]2)[O]C1=O` [OXA, oxaliplatin], the IC50 was found to be 4.1 µM in series [7]; 2.2 µM in series [8]; 3.3 µM in series [9]; 7.7 µM in series [10]; 0.6 µM in series [11]; 1 µM in [12]. Besides, the IC50 in [13] came to 2.2 µM; in series [14], 9.5 µM; in series [15], 9.4 µM; in [16], 6.6 µM. For the same compound, the “change in the number of viable cells” value in series [6] (HepG2, 24 h, DOX 2 µM, OXA 10 µM) is “reduced the number of viable cells”. In addition, the “DNA content S” value in series [17] (HepG2, 12 h) worked out at 12.9 ± 4.4%; in series [17] (HepG2, 24 h), 18.5 ± 1.4%; in [17] (HepG2, 48 h), 21.2 ± 1.7 %; in series [17] (HepG2, 72 h) it was 16.2 ± 1.1%.
Take `Oc1c2ccccc2c2c3c(cccc13)N=N2` [SP 600125]: in series [18] (setting [21]), the “effect of inhibitor pretreatment on RCX-induced apoptosis” value (shortened to “effect of inhibitor pretreatment”) is “did not prevent RCX-induced apoptosis”.
Regarding `N#CC(=C(/N)Sc1ccccc1N)/C(C#N)=C(/N)Sc1ccccc1N` [U-0126], the “effect of inhibitor pretreatment” value in [18] is “prevented RCX-induced apoptosis”.
With `CC[C@H](C)[C@H](NC(=O)OCc1ccccc1)C(=O)N[C@@H](CCC(=O)OC)C(=O)N[C@H](C(=O)N[C@@H](CC(=O)OC)C(=O)CF)[C@@H](C)O` [Z-IETD-FMK] (Cbz-IE(OMe)TD(OMe)-CH2F), the “effect of inhibitor pretreatment” value in [18] is on record as “prevented the RCX-induced apoptosis”.
On to `COC(=O)CC[C@H](NC(=O)[C@H](CC(C)C)NC(=O)OCc1ccccc1)C(=O)N[C@@H](Cc1cnc[nH]1)C(=O)N[C@@H](CC(=O)OC)C(=O)CF` [Z-LEHD-FMK] (Cbz-LE(OMe)HD(OMe)-CH2F), for which the “effect of inhibitor pretreatment” value in series [18] (setting [21]) is recorded as “prevented the RCX-induced apoptosis”.
For the compound `COC(=O)C[C@H](NC(=O)[C@H](C)NC(=O)[C@@H](NC(=O)OCc1ccccc1)C(C)C)C(=O)CF` [Z-VAD(OMe)-FMK] (Cbz-Val-Ala-Asp(OMe)-CH2F), the “effect of inhibitor pretreatment” value in series [18] is given as “prevented the RCX-induced apoptosis”.
For `Cc1ccc(-c2cn3c4c(sc3n2)CCCC4)cc1` [cyclic pifithrin-α], the “effect of inhibitor pretreatment” value in series [18] is listed as “did not prevent the RCX-induced apoptosis”.
Compound `COc1cc(O)c(C(C)=O)c(OC)c1` [xanthoxylin, 2-hydroxy-4,6-dimethoxyacetophenone] came in with an IC50 in series [19] of more than 127 µM.

By IC50 is commonly meant the midpoint of a concentration-inhibition curve. A higher IC50 goes with lower potency.
